Columns and labels:
[1] = target: T1, TSPO (Mus musculus, UniProt P50637); assay: In vivo dynamic PET/MR whole-body biodistribution of [^18F]FEPPA in control and LPS-injected mice; design: species or system C57BL/6 mice
T1 construct: from tissue; host or cells: living C57BL6 mice: brain regions, heart, lung, liver, spleen, kidney, blood (in vivo PET/MR)
Procedure: (§1) The mice in the LPS group (6 mice for each dose) were intraperitoneally injected with a single dose of 0.625, 1.25, 2.5 or 5 mg/kg LPS (Escherichia coli, strain O111:B4; Calbiochem, San Diego, CA, USA) to induce systemic inflammation. The control group were intraperitoneally injected with 0.9% NaCl. In vivo or in vitro assessments were performed 24 h after administration of LPS.
Before PET/MR imaging acquisition, the mice were anesthetized by passive inhalation of a mixture of isoflurane and oxygen (5% isoflurane for induction and 2% for maintenance). A fiber-optic temperature probe was inserted into the rectum to monitor the core temperature of the mice, then each animal was gently positioned in the MR cradle and the MRI coil was secured around the head. A warm water blanket was positioned to maintain the core temperature of the animals, then the mice were positioned inside the scanner. The depth of anesthesia, pulse and respiration were monitored constantly during the imaging procedure; in the unlikely event that an animal regained consciousness, the scanning was immediately stopped and the animal was removed from the scanner, humanely euthanized and eliminated from the study.
(§2) The animals (n = 6 per dose of LPS; n = 6 controls) were injected with [^18F]FEPPA (10.09 ± 1.38 MBq; […]) via the tail vein. Dynamic PET images were obtained using a 7 T PETMR Inline (Bruker, Rheinstetten, Germany) for 30 min with the energy window set to 350–650 keV. Images were acquired every 1 s for 10 images, 10 s for five images, 60 s for nine images, 300 s for two images and 600 s for 1 image; a total of 27 frames were collected.
(§3) The PET images were reconstructed through three-dimensional ordered-subset expectation maximization (3D-OSEM). The regional radioactivity concentration (KBq/cc) of [^18F]FEPPA was estimated based on the mean pixel values within the volumes of interest (VOI) corresponding to MR images of various regions of the brain. Image data were decay-corrected to the injection time. The radioactivity concentration (KBq/cc) of the VOI was converted to the standard uptake value (SUV), and the mean and standard error of the mean (SEM) radiotracer accumulation values were calculated for various tissues. PET/MR data were analyzed using PMOD 4.0 software (PMOD Technologies Ltd., Zurich, Switzerland).

[2] = target: T1, TSPO; assay: In vivo PET/MR brain region-specific uptake and pharmacokinetics (SUV, VT by Logan graphical analysis, AUC); design: species or system C57BL/6 mice; settings: for Brain [^18F]FEPPA uptake vs LPS dose: 24 h after injection
Procedure: as §1, §2
T1 and T2 MRI were performed to determine the anatomical structure of the brain. The MRI sequences included 0.5-mm thickness coronal T2 Turbo RARE high-resolution images (TR = 3455 ms, TE = 36 ms, matrix = 256 × 256, average = 8, slice number = 30).
as §3
The Logan graphical method for reversible uptake was used to assess whether [^18F]FEPPA PET/MRI [30] could be used to detect differences in the expression of TSPO. Cardiac blood was used as the reference tissue. The slope of the linear portion of the Logan plot represents the total distribution (VT). If metabolite-corrected plasma TACs are not available, a reference region TAC, Cp(t), can be used instead of the plasma TAC. Then, the slope of the linear portion of the plot can be calculated using (Eq. 1)1 ∫0tCTissueτdr/CTissuet=K∫0tCpτdr/CTissuet+V

[3] = Stability of final product (radiochemical purity by analytical HPLC); type: physicochemical; settings: 6 h after the end of synthesis; manual and automated synthesis
Procedure: Radiochemical and chemical purity, stability and molar activity were assessed by analytical HPLC. The molar activity of the radiotracer was quantified by measuring the radioactivity injected and deriving the concentration of FEPPA in the sample by UV detection.
The identity of the labeled compound [^18F]FEPPA was confirmed by co-injection with a non-radioactive FEPPA standard. The concentration of FEPPA in the radioactive sample was obtained from the UV-peak area ratio for the radioactive product and the standard solution. Analytical HPLC was performed on a Nova-pak C18 column (300 × 3.9 mm, 4 μm) in 50 mM (NH4)H2PO4:CH3CN (1:1) at 1 mL/min using a Waters Corporation 2695 pump with a multi-wavelength 2489 UV Detector (Waters Corporation) in series with a Bioscan FC-4000 dual BGO coincidence detector (Bioscan, Inc., Washington, DC, USA). A delay time of 12 s was observed between the two detectors.

[4] = system: TSPO; design: method as in PMID 18355686, PMID 24939192; settings: higher affinity than [^11C]PK-11195; cited from earlier work
[5] = design: method as in PMID 29875332; settings: cited from earlier work

## CC(=O)N(Cc1ccccc1OCC[18F])c1cnccc1Oc1ccccc1 [[^18F]FEPPA, [^18F]-N-(2-(2-fluoroethoxy)benzyl)-N-(4-phenoxypyridin-3-yl) acetamide]
[1]; LPS 5 mg/kg, 24 h
  Increase of [^18F]FEPPA in heart, LPS-induced group vs control: ~ 3 folds
  Increase of [^18F]FEPPA in lung, LPS-induced group vs control: ~ 3 folds
[1]; LPS (5 mg/kg i.p., 24 h) mice
  Accumulated radioactivity (SUV), Blood: 1.29 ± 0.128 SUV
  Accumulated radioactivity (SUV), Heart muscle: 3.60 ± 0.722 SUV
  Accumulated radioactivity (SUV), Kidney: 5.86 ± 0.504 SUV
  Accumulated radioactivity (SUV), Liver: 1.60 ± 0.097 SUV
  Accumulated radioactivity (SUV), Spleen: 0.96 ± 0.443 SUV
  Accumulated radioactivity (SUV), Whole brain: 0.76 ± 0.014 SUV
[1]; after injection
  Time of peak radioactivity in heart muscle: ≤ 3 min
[1]; after injection of [^18F]FEPPA
  Time to steady state in heart muscle and lungs: 10 min
[1]; control group, after i.v. injection
  Blood clearance kinetics: biexponential
[1]; control mice
  Accumulated radioactivity (SUV), Heart muscle: 1.24 ± 0.06 SUV
  Accumulated radioactivity (SUV), Kidney: 4.80 ± 0.57 SUV
  Accumulated radioactivity (SUV), Liver: 1.48 ± 0.36 SUV
  Accumulated radioactivity (SUV), Lung: 1.38 ± 0.08 SUV
  Accumulated radioactivity (SUV), Spleen: 1.16 ± 0.32 SUV
  Accumulated radioactivity (SUV), Whole brain: 0.48 ± 0.05 SUV
[1]; control mice, 30 min post-injection i.v.
  Accumulated radioactivity (SUV), Blood: 1.29 ± 0.03 SUV
[1]; post-injection
  Time of peak accumulation in the lungs: 1 to 2 min
[2]; 5 mg/kg LPS
  Brain [^18F]FEPPA uptake vs LPS dose: significantly higher uptake
[2]; LPS 5 mg/kg, 24 h
  AUC (SUV·min, 0–30 min) ratio in brain, LPS vs control: 1.58 ± 0.09 fold
[2]; LPS 5 mg/kg, 24 h, average of brain regions, cardiac blood as reference
  VT (Logan graphical analysis) in brain, LPS vs control: 1.25 ± 0.12 fold
[2]; LPS 5 mg/kg, 24 h, brain
  Average SUV ratio for all brain regions, LPS vs control: 1.61 ± 0.1 fold
[2]; LPS dose ≦ 2.5 mg/kg
  Brain [^18F]FEPPA uptake vs LPS dose: no significant difference
[2]; control animals, followed by rapid washout
  Time of peak radioactivity in brain regions: ≤ 3 min
[3]
  Radiochemical purity (stability of final product): more than 99%
[4]
  Affinity relative to [^11C]PK-11195: 18 fold
[5]; 30 min after injection
  Parent fraction of unmetabolized [^18F]FEPPA in the brain (intact form): approximately 95%
[5]; 30 min imaging time-window
  Metabolite in plasma: 60%

Source: publication PMC7966678, “GMP-compliant fully automated radiosynthesis of [^18F]FEPPA for PET/MRI imaging of regional brain TSPO expression” (EJNMMI Research, 2021)
